Experiments:
[1] = test system: IL3000 T. congolense (drug sensitive) strain; experiment: In vitro Alamar Blue 72 h drug sensitivity assay for T. congolense; format: cell-based, Trypanosoma congolense; settings: Trypanosoma congolense, 72 h, bloodstream form, 69 h + 3 h Resazurin, 34° C., read-out: IC50: I Org. Growth T. congolense 3 d
Method in brief: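 IC50 values derive from 11-point curves averaged over at least three independent runs, with fluorescence read at 536 nm excitation and 588 nm emission. Resazurin was added for a final 3 h after 69 h compound exposure of bloodstream forms (HMI medium, 20% bovine serum, 34° C, 5% CO2).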

[2] = test system: T. cruzi amastigote (Td Tomato-modified) in Vero cells; experiment: In vitro IC50 measurement of T. cruzi amastigote killing using Td Tomato-modified T. cruzi; format: cell-based; settings: Trypanosoma cruzi, 72 h, fluorescence, read-out: IC50: I Org. amastigote Growth T. cruzi 3 d
Method in brief: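 IC50/IC90 came from nonlinear regression of Day 3 minus Day 0 fluorescence (544/612 nm), correcting for input parasites. Final compound concentrations spanned 5 nM–5 uM on Td Tomato T. cruzi-infected Vero cells, 72 h at 37 °C.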

Row | Structure (SMILES) | IC50 [1] [nM] | IC50 [2] [nM]
1 | Cc1c(C(=O)N[C@H](C(=O)OCc2ccc(C(F)(F)F)cc2)C(C)C)ccc2c1B(O)OC2 [Example 6-041, 4-Trifluoromethylbenzyl (1-hydroxy-7-methyl-1,3-dihydrobenzo[c][1,2]oxaborole-6-carbonyl)-L-valinate] | < 0.5 | ≤ 20
2 | Cc1c(C(=O)N[C@H](C(=O)OC2CCN(C)CC2)C(C)C)ccc2c1B(O)OC2 [Example 6-142, 1-Methylpiperidin-4-yl (1-hydroxy-7-methyl-1,3-dihydrobenzo[c][1,2]oxaborole-6-carbonyl)-L-valinate] | < 0.5 | 21 to 999
3 | Cc1c(C(=O)N[C@H](C(=O)OCc2c[nH]cn2)C(C)C)ccc2c1B(O)OC2 [Example 6-138, (1H-Imidazol-4-yl)methyl (1-hydroxy-7-methyl-1,3-dihydrobenzo[c][1,2]oxaborole-6-carbonyl)-L-valinate] | 10 to 5000 | ≥ 1000
4 | Cc1c(C(=O)N[C@H](C(=O)OCc2cc(C(F)(F)F)ncn2)C(C)C)ccc2c1B(O)OC2 [Example 6-161, (6-(trifluoromethyl)pyrimidin-4-yl)methyl (1-hydroxy-7-methyl-1,3-dihydrobenzo[c][1,2]oxaborole-6-carbonyl)-L-valinate] | < 0.5 | ≤ 20
5 | Cc1c(C(=O)N[C@H](C(=O)OCc2cccc(CN3CCCC3)c2)C(C)C)ccc2c1B(O)OC2 [Example 6-113, 3-(Pyrrolidin-1-ylmethyl)benzyl (1-hydroxy-7-methyl-1,3-dihydrobenzo[c][1,2]oxaborole-6-carbonyl)-L-valinate] | < 0.5 | ≤ 20
6 | Cc1c(C(=O)N[C@H](C(=O)OCc2ccc(NS(C)(=O)=O)cc2)C(C)C)ccc2c1B(O)OC2 [Example 6-075, 4-(Methylsulfonamido)benzyl (1-hydroxy-7-methyl-1,3-dihydrobenzo[c][1,2]oxaborole-6-carbonyl)-L-valinate] | 10 to 5000 | ≥ 1000
7 | Cc1c(C(=O)N[C@H](C(=O)OC2CCCCC2)C(C)C)ccc2c1B(O)OC2 [Example 6-133, Cyclohexyl (1-hydroxy-7-methyl-1,3-dihydrobenzo[c][1,2]oxaborole-6-carbonyl)-L-valinate] | < 0.5 | ≤ 20
8 | Cc1c(C(=O)N[C@H](C(=O)OCCc2ccccn2)C(C)C)ccc2c1B(O)OC2 [Example 6-173, 2-(Pyridin-2-yl)ethyl (1-hydroxy-7-methyl-1,3-dihydrobenzo[c][1,2]oxaborole-6-carbonyl)-L-valinate] | < 0.5 | ≤ 20
9 | Cc1c(C(=O)N[C@H](C(=O)OCc2ccc(CN3CCN(C)CC3)cc2)C(C)C)ccc2c1B(O)OC2 [Example 6-111, 4-((4-Methylpiperazin-1-yl)methyl)benzyl (1-hydroxy-7-methyl-1,3-dihydrobenzo[c][1,2]oxaborole-6-carbonyl)-L-valinate] | 0.51 to 9.99 | ≤ 20
10 | Cc1c(C(=O)N[C@H](C(=O)OCc2cccc(CN3CCNCC3)c2)C(C)C)ccc2c1B(O)OC2 [Example 6-117, 3-(Piperazin-1-ylmethyl)benzyl (1-hydroxy-7-methyl-1,3-dihydrobenzo[c][1,2]oxaborole-6-carbonyl)-L-valinate] | 10 to 5000 | ≥ 1000
11 | Cc1c(C(=O)N[C@H](C(=O)OCc2ccnc(C(F)(F)F)n2)C(C)C)ccc2c1B(O)OC2 [Example 6-160, (2-(Trifluoromethyl)pyrimidin-4-yl)methyl (1-hydroxy-7-methyl-1,3-dihydrobenzo[c][1,2]oxaborole-6-carbonyl)-L-valinate] | < 0.5 | 21 to 999
12 | COCN(COC)S(=O)(=O)c1ccc(COC(=O)[C@@H](NC(=O)c2ccc3c(c2C)B(O)OC3)C(C)C)cc1 [Example 6-109, 4-(N,N-bis(methoxymethyl)sulfamoyl)benzyl (1-hydroxy-7-methyl-1,3-dihydrobenzo[c][1,2]oxaborole-6-carbonyl)-L-valinate] | 0.51 to 9.99 | 21 to 999
13 | CC(C)[C@H](NC(=O)c1ccc2c(c1F)B(O)OC2)C(=O)OCc1ccc(F)cc1 [Example 6-036, 4-Fluorobenzyl (7-fluoro-1-hydroxy-1,3-dihydrobenzo[c][1,2]oxaborole-6-carbonyl)-L-valinate] | 10 to 5000 | 21 to 999
14 | CC[S+]([O-])c1ccc(COC(=O)[C@@H](NC(=O)c2ccc3c(c2C)B(O)OC3)C(C)C)cc1 (stereo partly drawn) [Example 6-094, 4-(Ethylsulfinyl)benzyl (1-hydroxy-7-methyl-1,3-dihydrobenzo[c][1,2]oxaborole-6-carbonyl)-L-valinate] | 0.51 to 9.99 | 21 to 999
15 | Cc1c(C(=O)N[C@H](C(=O)OCc2ccc(OC(F)(F)F)cc2)C(C)C)ccc2c1B(O)OC2 [Example 6-054, 4-Trifluoromethoxybenzyl (1-hydroxy-7-methyl-1,3-dihydrobenzo[c][1,2]oxaborole-6-carbonyl)-L-valinate] | < 0.5 | ≤ 20
16 | Cc1c(C(=O)N[C@H](C(=O)OCc2cc(F)c(F)c(F)c2)C(C)(C)O)ccc2c1B(O)OC2 [Example 6-101, 3,4,5-Trifluorobenzyl(S)-3-hydroxy-2-(1-hydroxy-7-methyl-1,3-dihydrobenzo[c][1,2]oxaborole-6-carboxamido)-3-methylbutanoate] | < 0.5 | ≤ 20
17 | Cc1c(C(=O)N[C@H](C(=O)OCCN2CCCOCC2)C(C)C)ccc2c1B(O)OC2 [Example 6-214, 2-(1,4-oxazepan-4-yl)ethyl (1-hydroxy-7-methyl-1,3-dihydrobenzo[c][1,2]oxaborole-6-carbonyl)-L-valinate] | 0.51 to 9.99 | ≥ 1000
18 | Cc1c(C(=O)N[C@H](C(=O)OCc2ccc(C(=O)N3CCNCC3)cc2)C(C)C)ccc2c1B(O)OC2 [Example 6-102, 4-(Piperazine-1-carbonyl)benzyl (1-hydroxy-7-methyl-1,3-dihydrobenzo[c][1,2]oxaborole-6-carbonyl)-L-valinate] | 10 to 5000 | ≥ 1000
19 | Cc1c(C(=O)N[C@H](C(=O)OC2CCC2)C(C)C)ccc2c1B(O)OC2 [Example 6-136, Cyclobutyl (1-hydroxy-7-methyl-1,3-dihydrobenzo[c][1,2]oxaborole-6-carbonyl)-L-valinate] | < 0.5 | ≤ 20
20 | Cc1c(C(=O)N[C@H](C(=O)OCc2cncc(N3CCOCC3)n2)C(C)C)ccc2c1B(O)OC2 [Example 6-193, (6-morpholinopyrazin-2-yl)methyl (1-hydroxy-7-methyl-1,3-dihydrobenzo[c][1,2]oxaborole-6-carbonyl)-L-valinate] | < 0.5 | ≤ 20
21 | Cc1c(C(=O)N[C@H](C(=O)OCc2ccc(S(=O)(=O)N3CCOCC3)cc2)C(C)C)ccc2c1B(O)OC2 [Example 6-086, 4-(Morpholinosulfonyl)benzyl (1-hydroxy-7-methyl-1,3-dihydrobenzo[c][1,2]oxaborole-6-carbonyl)-L-valinate] | < 0.5 | 21 to 999
22 | CC(C)[C@H](NC(=O)c1ccc2c(c1)B(O)OC2)C(=O)OCc1ccc(F)cc1 [Example 6-030, 4-Fluorobenzyl (1-hydroxy-1,3-dihydrobenzo[c][1,2]oxaborole-6-carbonyl)-L-valinate] | 0.51 to 9.99 | 21 to 999
23 | Cc1c(C(=O)N[C@H](C(=O)OCc2ccc(F)cc2)[C@@H](C)O)ccc2c1B(O)OC2 [Example 6-074, 4-Fluorobenzyl (1-hydroxy-7-methyl-1,3-dihydrobenzo[c][1,2]oxaborole-6-carbonyl)-L-threoninate] | < 0.5 | 21 to 999
24 | Cc1c(C(=O)N[C@H](C(=O)OCc2ccc(C#N)cc2)C(C)C)ccc2c1B(O)OC2 [Example 6-044, 4-Cyanobenzyl (1-hydroxy-7-methyl-1,3-dihydrobenzo[c][1,2]oxaborole-6-carbonyl)-L-valinate] | < 0.5 | ≤ 20
25 | Cc1c(C(=O)N[C@H](C(=O)OCc2ccc([S+](C)[O-])cc2)C(C)C)ccc2c1B(O)OC2 (stereo partly drawn) [Example 6-090, 4-(Methylsulfinyl)benzyl (1-hydroxy-7-methyl-1,3-dihydrobenzo[c][1,2]oxaborole-6-carbonyl)-L-valinate] | 0.51 to 9.99 | 21 to 999
26 | Cc1c(C(=O)N[C@H](C(=O)OCc2ccc(F)cc2)[C@@H](C)OCc2ccccc2)ccc2c1B(O)OC2 [Example 6-077, 4-Fluorobenzyl O-benzyl-N-(1-hydroxy-7-methyl-1,3-dihydrobenzo[c][1,2]oxaborole-6-carbonyl)-L-threoninate] | 0.51 to 9.99 | ≤ 20
27 | Cc1c(C(=O)N[C@H](C(=O)OCc2ccncc2)C(C)C)ccc2c1B(O)OC2 [Example 6-190, Pyridin-4-ylmethyl (1-hydroxy-7-methyl-1,3-dihydrobenzo[c][1,2]oxaborole-6-carbonyl)-L-valinate] | 0.51 to 9.99 | 21 to 999
28 | Cc1c(C(=O)N[C@H](C(=O)OCC2CCN(C)CC2)C(C)C)ccc2c1B(O)OC2 [Example 6-114, (1-Methylpiperidin-4-yl)methyl (1-hydroxy-7-methyl-1,3-dihydrobenzo[c][1,2]oxaborole-6-carbonyl)-L-valinate] | 0.51 to 9.99 | 21 to 999
29 | Cc1c(C(=O)N[C@H](C(=O)OCc2ccc(F)c(C(F)(F)F)c2)C(C)C)ccc2c1B(O)OC2 [Example 6-049, 4-Fluoro-3-(trifluoromethyl)benzyl (1-hydroxy-7-methyl-1,3-dihydrobenzo[c][1,2]oxaborole-6-carbonyl)-L-valinate] | < 0.5 | ≤ 20
30 | Cc1c(C(=O)N[C@@H](C(=O)OCc2ccc(F)cc2)C(C)C)ccc2c1B(O)OC2 [Example 6-087, 4-Fluorobenzyl (1-hydroxy-7-methyl-1,3-dihydrobenzo[c][1,2]oxaborole-6-carbonyl)-D-valinate] | 10 to 5000 | ≥ 1000

From patent US11578087B2, “Oxaborole esters and uses thereof” (priority 2016, dated 2023)
